We go through eight molecules from patent US20260085067A1, “CYCLIC SULFONAMIDE RIBONUCLEOTIDE REDUCTASE (RNR) INHIBITORS AND USES THEREOF” (Boundless Bio, Inc., priority 2022, published 2026).

Molecules are shown by their SMILES.

One assay addresses T1, RNR (RNR1:RNR2 1:1) (Homo sapiens, UniProt P23921).
T1 sequence (P23921 1-792): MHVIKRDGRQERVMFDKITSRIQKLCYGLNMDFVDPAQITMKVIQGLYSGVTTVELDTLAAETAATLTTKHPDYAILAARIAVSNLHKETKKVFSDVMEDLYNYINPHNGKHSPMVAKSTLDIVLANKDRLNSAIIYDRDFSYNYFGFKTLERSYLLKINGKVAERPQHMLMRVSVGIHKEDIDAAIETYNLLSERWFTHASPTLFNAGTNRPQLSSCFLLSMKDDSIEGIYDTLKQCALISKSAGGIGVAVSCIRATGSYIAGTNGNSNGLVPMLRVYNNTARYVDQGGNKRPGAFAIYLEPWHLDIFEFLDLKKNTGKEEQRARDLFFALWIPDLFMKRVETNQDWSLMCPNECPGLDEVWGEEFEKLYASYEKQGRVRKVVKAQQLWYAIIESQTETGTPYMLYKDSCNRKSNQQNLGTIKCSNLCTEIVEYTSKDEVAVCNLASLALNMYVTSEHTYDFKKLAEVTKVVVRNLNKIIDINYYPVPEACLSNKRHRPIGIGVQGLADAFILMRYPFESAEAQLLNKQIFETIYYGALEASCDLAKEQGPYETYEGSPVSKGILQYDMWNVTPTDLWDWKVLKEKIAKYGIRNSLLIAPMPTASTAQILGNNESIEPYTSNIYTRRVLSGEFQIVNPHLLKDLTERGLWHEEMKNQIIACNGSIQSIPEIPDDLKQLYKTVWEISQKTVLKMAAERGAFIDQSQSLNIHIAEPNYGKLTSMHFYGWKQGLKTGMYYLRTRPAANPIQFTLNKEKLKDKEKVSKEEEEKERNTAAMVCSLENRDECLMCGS
Description: RNR enzyme activity, rapid-fire mass spectrometry (RF/MS) assay. Format: biochemical. The settings on record: [RNR] 50 nM, 1:1 RNR1:RNR2; CDP 5 μM; ATP 1 mM; 37° C., 45 min; compounds screened up to 50 μM. In a few lines:
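Human RNR (50 nM final, RNR1:RNR2 1:1) pre-incubated 15 min at room temperature, then reacted 45 min at 37 °C with 5 μM CDP and 1 mM ATP, no NADPH. Reaction quenched with 6% HCOOH; product quantified by rapid-fire mass spectrometry.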

Assay [1] deals with pCHK1 (S345) in Colo320 DM cells. Description: Alphalisa assay, detection of pCHK1 (S345) in Colo320 DM cells. The assay is classed as cell-based, human. The settings on record: Homo sapiens, COLO 320DM, compound overnight (approximately 16 hours). In a few lines:
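Phospho-CHK1 (S345) read by AlphaLisa SureFire in lysates of human colorectal Colo320 DM cells. Compound treatment ran overnight (~16 h, 37 °C, DMSO <0.5%) on cells seeded the day before.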

Turning to `Cc1ccc(F)c([C@@H](C)[C@@H](c2n[nH]c(=O)o2)N2CN([C@H]3CCNC3)c3cc(Cl)ccc3S2(=O)=O)c1C` [Example 59, 5-((1S,2R)-1-(6-chloro-1,1-dioxido-4-((S)-pyrrolidin-3-yl)-3,4-dihydro-2H-benzo[e][1,2,4]thiadiazin-2-yl)-2-(6-fluoro-2,3-dimethylphenyl)propyl)-1,3,4-oxadiazol-2 (3H)-one], the IC50 (as a rule, the concentration at which inhibition is half-maximal) was below 20 nM against RNR (RNR1:RNR2 1:1) and 5000 to 10000 nM in assay [1].

For the molecule `Cc1ccc(F)c([C@@H](C)[C@@H](c2n[nH]c(=O)o2)N2CN(C)c3c(ccc(Cl)c3CN3CCCCC3)S2(=O)=O)c1C` [Example 61, 5-((1S,2R)-1-(6-chloro-4-methyl-1,1-dioxido-5-(piperidin-1-ylmethyl)-3,4-dihydro-2H-benzo[e][1,2,4]thiadiazin-2-yl)-2-(6-fluoro-2,3-dimethylphenyl)propyl)-1,3,4-oxadiazol-2 (3H)-one], the concentration for half-maximal inhibition (IC50) against RNR (RNR1:RNR2 1:1) is 100 to 1000 nM; in assay [1] it was 10000 to 50000 nM.

In the case of `Cc1ccc(F)c([C@@H](C)[C@@H](c2n[nH]c(=O)o2)N2CN(C[C@@H]3CCCO3)c3cc(Cl)ccc3S2(=O)=O)c1C` [Example 62, 5-((1S,2R)-1-(6-chloro-1,1-dioxido-4-(((S)-tetrahydrofuran-2-yl)methyl)-3,4-dihydro-2H-benzo[e][1,2,4]thiadiazin-2-yl)-2-(6-fluoro-2,3-dimethylphenyl)propyl)-1,3,4-oxadiazol-2 (3H)-one], the values for the IC50 (against RNR (RNR1:RNR2 1:1); in assay [1]) were below 20 nM and at most 1000 nM, respectively.

On to `COCCN1CN([C@H](c2n[nH]c(=O)o2)[C@H](C)c2c(F)ccc(C)c2C)S(=O)(=O)c2ccc(Cl)nc21` [Example 63, 5-((1S,2R)-1-(6-chloro-4-(2-methoxyethyl)-1,1-dioxido-3,4-dihydro-2H-pyrido[2,3-e][1,2,4]thiadiazin-2-yl)-2-(6-fluoro-2,3-dimethylphenyl)propyl)-1,3,4-oxadiazol-2 (3H)-one], for which the half-maximal inhibitory concentration (IC50) on RNR (RNR1:RNR2 1:1) was below 20 nM; in assay [1], at most 1000 nM.

Regarding `CC(=O)c1c(Cl)ccc2c1N(C)CN([C@H](c1n[nH]c(=O)o1)[C@H](C)c1c(F)ccc(C)c1C)S2(=O)=O` [Example 64, 5-((1S,2R)-1-(5-acetyl-6-chloro-4-methyl-1,1-dioxido-3,4-dihydro-2H-benzo[e][1,2,4]thiadiazin-2-yl)-2-(6-fluoro-2,3-dimethylphenyl)propyl)-1,3,4-oxadiazol-2 (3H)-one], the half-maximal inhibitory concentration (IC50) at RNR (RNR1:RNR2 1:1) was 20 to 100 nM; in assay [1], at most 1000 nM.

Take `Cc1ccc(F)c([C@@H](C)[C@@H](c2n[nH]c(=O)o2)N2CN(C3CN(C)C3)c3cc(Cl)ccc3S2(=O)=O)c1C` [Example 65, 5-((1S,2R)-1-(6-chloro-4-(1-methylazetidin-3-yl)-1,1-dioxido-3,4-dihydro-2H-benzo[e][1,2,4]thiadiazin-2-yl)-2-(6-fluoro-2,3-dimethylphenyl)propyl)-1,3,4-oxadiazol-2 (3H)-one]: the values for the IC50 (at RNR (RNR1:RNR2 1:1); in assay [1]) were below 20 nM and at most 1000 nM, respectively.

Turning to `Cc1ccc(F)c([C@@H](C)[C@@H](c2n[nH]c(=O)o2)N2CN(C)c3cc(O)ccc3S2(=O)=O)c1C` [Example 66, 5-((1S,2R)-2-(6-fluoro-2,3-dimethylphenyl)-1-(6-hydroxy-4-methyl-1,1-dioxido-3,4-dihydro-2H-benzo[e][1,2,4]thiadiazin-2-yl)propyl)-1,3,4-oxadiazol-2 (3H)-one], the half-maximal inhibitory concentration (IC50) lay in the range of 20 to 100 nM at RNR (RNR1:RNR2 1:1) and 10000 to 50000 nM in assay [1].

As to `Cc1ccc(F)c([C@@H](C)[C@@H](c2n[nH]c(=O)o2)N2CN(S(C)(=O)=O)c3cc(Cl)ccc3S2(=O)=O)c1C` [Example 67, 5-((1S,2R)-1-(6-chloro-4-(methylsulfonyl)-1,1-dioxido-3,4-dihydro-2H-benzo[e][1,2,4]thiadiazin-2-yl)-2-(6-fluoro-2,3-dimethylphenyl)propyl)-1,3,4-oxadiazol-2 (3H)-one], the IC50 on RNR (RNR1:RNR2 1:1) is 100 to 1000 nM; in assay [1], 5000 to 10000 nM.
